Source: PubChem BioAssay (NCI)
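96-well plates; 48 h exposure; 5 concentrations. Endpoints by linear interpolation between flanking doses. Not reached: highest tested concentration assigned. GI50 is the concentration that inhibits growth by half. TGI denotes the concentration required for complete inhibition of growth.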

Columns and labels:
Assay in all cases: NCI-60 cell line screen, 48 h
NCI-H23 lung = system: NCI-H23 lung
UACC-257 melanoma = system: UACC-257 melanoma
BT-549 breast = system: BT-549 breast
NCI-H226 lung = system: NCI-H226 lung

Work on `C/C=C1\NC(=O)[C@H](Cc2ccccc2)NC(=O)[C@@H](C(C)C)NC(=O)[C@@H]([C@@H](C)CC)NC(=O)[C@H](NC(=O)[C@H](NC(=O)[C@H](CCCN)NC(=O)[C@H]2CCCN2C(=O)[C@H](NC(=O)[C@@H](NC(=O)[C@@H](NC(=O)[C@H](NC(=O)CCCC(C)C)C(C)C)[C@@H](C)O)C(C)C)C(C)C)[C@@H](C)CC)[C@@H](C)OC(=O)[C@H](C(C)C)NC1=O` yielded a TGI (NCI-H23 lung) of 15.2 µM, a GI50 (UACC-257 melanoma) of 1020 nM and a TGI (UACC-257 melanoma) of 2840 nM. It also gave a TGI (BT-549 breast) of 12 µM and a TGI (NCI-H226 lung) of 4.24 µM.
